Data on 24 compounds can be found in ChEMBL document CHEMBL1146670, “Structure based design of a series of potent and selective non peptidic PTP-1B inhibitors” (Bioorg Med Chem Lett, 2004).

The target of assay [1] is T1, Receptor-type tyrosine-protein phosphatase C (Homo sapiens, UniProt P08575).
T1 sequence (P08575 whole entry): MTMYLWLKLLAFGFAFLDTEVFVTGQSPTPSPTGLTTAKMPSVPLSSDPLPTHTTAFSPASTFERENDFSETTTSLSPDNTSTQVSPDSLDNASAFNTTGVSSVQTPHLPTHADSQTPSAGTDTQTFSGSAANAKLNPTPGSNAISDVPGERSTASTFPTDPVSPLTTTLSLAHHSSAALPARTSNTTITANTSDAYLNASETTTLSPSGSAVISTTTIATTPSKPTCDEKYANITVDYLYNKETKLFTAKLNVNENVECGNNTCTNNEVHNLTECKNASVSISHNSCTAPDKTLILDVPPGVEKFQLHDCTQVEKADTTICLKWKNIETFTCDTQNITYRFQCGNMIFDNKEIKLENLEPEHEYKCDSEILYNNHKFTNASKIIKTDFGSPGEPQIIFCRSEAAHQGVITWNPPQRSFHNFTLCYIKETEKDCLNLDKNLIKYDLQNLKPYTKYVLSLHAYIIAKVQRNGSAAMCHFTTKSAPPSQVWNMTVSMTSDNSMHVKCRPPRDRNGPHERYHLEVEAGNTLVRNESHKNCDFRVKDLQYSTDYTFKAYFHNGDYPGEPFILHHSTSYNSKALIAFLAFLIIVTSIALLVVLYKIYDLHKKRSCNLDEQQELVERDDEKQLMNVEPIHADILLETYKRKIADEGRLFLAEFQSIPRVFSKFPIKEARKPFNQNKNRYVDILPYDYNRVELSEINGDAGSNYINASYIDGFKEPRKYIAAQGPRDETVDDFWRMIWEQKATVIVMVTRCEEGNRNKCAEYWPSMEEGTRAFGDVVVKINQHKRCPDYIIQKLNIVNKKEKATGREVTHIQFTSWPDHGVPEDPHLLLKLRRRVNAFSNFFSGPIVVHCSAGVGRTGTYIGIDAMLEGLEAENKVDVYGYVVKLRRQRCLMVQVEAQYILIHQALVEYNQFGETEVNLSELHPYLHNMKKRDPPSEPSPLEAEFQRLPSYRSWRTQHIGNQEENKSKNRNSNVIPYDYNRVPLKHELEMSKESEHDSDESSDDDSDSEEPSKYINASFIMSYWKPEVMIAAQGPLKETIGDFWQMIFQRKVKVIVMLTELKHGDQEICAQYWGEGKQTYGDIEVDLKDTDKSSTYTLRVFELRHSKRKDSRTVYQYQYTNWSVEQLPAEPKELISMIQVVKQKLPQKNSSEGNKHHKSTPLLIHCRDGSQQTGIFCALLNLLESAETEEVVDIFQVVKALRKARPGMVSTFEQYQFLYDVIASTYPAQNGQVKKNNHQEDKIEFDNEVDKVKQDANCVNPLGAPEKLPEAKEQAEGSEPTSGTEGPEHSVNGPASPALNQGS
The assay is described as follows: Inhibitory activity against CD45 protein-tyrosine phosphatase.

Assay [2] addresses T2, Tyrosine-protein phosphatase non-receptor type 2 (Homo sapiens, UniProt P17706).
T2 sequence (P17706 whole entry): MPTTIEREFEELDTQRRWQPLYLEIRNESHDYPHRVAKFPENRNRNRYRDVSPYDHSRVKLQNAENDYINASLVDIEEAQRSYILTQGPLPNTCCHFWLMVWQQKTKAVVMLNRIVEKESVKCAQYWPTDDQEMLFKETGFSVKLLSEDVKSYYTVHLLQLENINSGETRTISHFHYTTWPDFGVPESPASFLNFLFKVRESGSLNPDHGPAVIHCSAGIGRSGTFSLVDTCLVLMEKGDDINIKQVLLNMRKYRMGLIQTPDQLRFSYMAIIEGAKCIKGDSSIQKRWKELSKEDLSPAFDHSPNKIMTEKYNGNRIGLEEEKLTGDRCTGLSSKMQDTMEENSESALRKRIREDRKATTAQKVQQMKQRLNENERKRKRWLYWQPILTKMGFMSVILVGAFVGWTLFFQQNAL
Briefly: Inhibitory activity against T cell protein tyrosine phosphatase. Type of assay: cell-based.

For assay [3], the target named is T3, Tyrosine-protein phosphatase non-receptor type 1 (Homo sapiens, UniProt P18031).
T3 sequence (P18031 whole entry): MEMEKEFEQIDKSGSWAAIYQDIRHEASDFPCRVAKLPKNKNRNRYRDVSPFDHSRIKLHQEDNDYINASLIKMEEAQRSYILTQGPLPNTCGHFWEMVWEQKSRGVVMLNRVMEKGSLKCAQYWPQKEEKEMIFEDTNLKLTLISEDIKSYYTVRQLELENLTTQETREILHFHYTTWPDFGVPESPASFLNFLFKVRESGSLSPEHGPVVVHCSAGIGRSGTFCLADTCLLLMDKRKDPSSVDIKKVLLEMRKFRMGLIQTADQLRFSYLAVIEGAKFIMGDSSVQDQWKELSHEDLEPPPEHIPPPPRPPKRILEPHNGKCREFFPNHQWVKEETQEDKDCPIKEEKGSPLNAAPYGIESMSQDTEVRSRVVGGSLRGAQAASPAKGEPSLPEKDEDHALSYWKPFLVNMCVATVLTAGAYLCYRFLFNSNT
Briefly: Inhibitory activity against Protein tyrosine phosphatase 1B (PTP1B) over-expressed in intact Sf9 cell assay.

In assay [4] the target is T3, Tyrosine-protein phosphatase non-receptor type 1. The assay is described as follows: Inhibitory activity against protein tyrosine phosphatase 1B (PTP1B) was determined in fluorescein diphosphate (FDP) assay.

A value given as a limit tells only on which side of the number the result lay.

Regarding `O=P(O)(O)C(F)(F)c1ccc(CC(Cc2ccc(C(F)(F)P(=O)(O)O)cc2)(c2ccc(F)c(F)c2)n2nnc3ccccc32)cc1`, the IC50 in assay [1] was determined as 50000 nM; in assay [2], 8 nM.

Consider `O=C(OCc1ccccc1)C(Cc1ccc(C(F)(F)P(=O)(O)O)cc1)(c1ccccc1)n1nnc2ccccc21` (stereo unspecified), for which the IC50 turned out to be 50000 nM in assay [1], 1700 nM in assay [3], 240 nM in assay [4] and 290 nM in assay [2].

As to `O=P(O)(O)C(F)(F)c1ccc(CC(Cc2ccc(C(F)(F)P(=O)(O)O)c(Br)c2)(c2ccccc2)n2nnc3ccccc32)cc1` (stereo unspecified), the IC50 in assay [1] was determined as 25000 nM; in assay [3], 160 nM; in assay [4], 5 nM; in assay [2], 4 nM.

Consider `O=P(O)(O)C(F)(F)c1ccc(CC(Cc2ccc(-c3ccccc3)cc2)(c2ccccc2)n2nnc3ccccc32)cc1` (stereo unspecified), for which the IC50 was 69000 nM in assay [1] and 1600 nM in assay [3].

In the case of `Cc1ccc2cc(-c3ccc(CC(Cc4ccc(C(F)(F)P(=O)(O)O)cc4)(c4ccccc4)n4nnc5ccccc54)cc3)cc(P(=O)(O)O)c2n1` (stereo unspecified), the figures for the half-inhibitory concentration (IC50) in assay [1] and in assay [3] were 50000 nM and 220 nM, respectively.

For the compound `COC(=O)c1ccc(C(Cc2ccc(C(F)(F)P(=O)(O)O)cc2)(Cc2ccc(C(F)(F)P(=O)(O)O)cc2)n2nnc3ccccc32)cc1`, the IC50 in assay [1] amounted to 50000 nM; in assay [3], 84 nM; in assay [4], 11 nM; in assay [2], 16 nM.

In assay [1], `O=P(O)(O)c1cccc(-c2ccc(CC(Cc3ccc(C(F)(F)P(=O)(O)O)cc3)(c3ccccc3)n3nnc4ccccc43)cc2)c1` (stereo unspecified) had a concentration for half-maximal inhibition (IC50) of 50000 nM.

Regarding `O=P(O)(O)C(F)(F)c1ccc(CC(Cc2ccc(C(F)(F)P(=O)(O)O)cc2)(c2ccc3ccccc3n2)n2nnc3ccccc32)cc1`, the IC50 in assay [1] amounted to 50000 nM; in assay [3], 62 nM; in assay [4], 20 nM; in assay [2], 28 nM.

With `O=P(O)(O)C(F)(F)c1ccc(/C=C/CC(Cc2ccc(C(F)(F)P(=O)(O)O)cc2)(c2ccccc2)n2nnc3ccccc32)cc1` (stereo unspecified), the IC50 was 50000 nM in assay [1], 120 nM in assay [3], 16 nM in assay [4] and 10 nM in assay [2].

`O=P(O)(O)C(F)(F)c1ccc(CC(Cc2ccc(C(F)(F)P(=O)(O)O)cc2)(c2ccccc2)n2nnc3ccccc32)cc1`: the IC50 in assay [1] is 50000 nM; in assay [3] it was 120 nM; in assay [2] it was 10 nM.

As to `O=P(O)(O)C(F)(F)c1ccc(CC(Cc2ccc(-c3ccccc3-c3nn[nH]n3)cc2)(c2ccccc2)n2nnc3ccccc32)cc1` (stereo unspecified), the IC50 in assay [1] was determined as 50000 nM; in assay [3], 370 nM; in assay [4], 74 nM; in assay [2] it was 85 nM.

On to `O=P(O)(O)C(F)(F)c1ccc(CC(C/C=C/c2ccccc2)(c2ccccc2)n2nnc3ccccc32)cc1` (stereo unspecified), for which the IC50 in assay [1] stood at 50000 nM; in assay [3] it was 460 nM; in assay [4], 49 nM; in assay [2] it was 49 nM.

Regarding `O=P(O)(O)C(F)(F)c1ccc(CC(Cc2ccc(C(F)(F)P(=O)(O)O)cc2)(c2nnn[nH]2)n2nnc3ccccc32)cc1`, the IC50 came to 7200 nM in assay [1], 1200 nM in assay [3], 32 nM in assay [4] and 16 nM in assay [2].

For `O=P(O)(O)C(F)(F)c1ccc(CC(Cc2ccc(C(F)(F)P(=O)(O)O)cc2)(c2nc3ccccc3s2)n2nnc3ccccc32)cc1`, the IC50 in assay [1] worked out at 11000 nM; in assay [3], 88 nM; in assay [4] it was 18 nM; in assay [2], 20 nM.

For `NS(=O)(=O)c1ccccc1-c1ccc(CC(Cc2ccc(C(F)(F)P(=O)(O)O)cc2)(c2ccccc2)n2nnc3ccccc32)cc1` (stereo unspecified), the IC50 in assay [1] stood at 50000 nM; in assay [3], 930 nM; in assay [4], 69 nM; in assay [2], 82 nM.

Turning to `O=P(O)(O)C(F)(F)c1ccc(CC(CCCc2ccccc2)(c2ccccc2)n2nnc3ccccc32)cc1` (stereo unspecified), the IC50 turned out to be 30000 nM in assay [1], 650 nM in assay [3], 46 nM in assay [4] and 72 nM in assay [2].

On to `O=P(O)(O)C(F)(F)c1ccc(CC(Cc2ccc(Br)cc2)(c2ccccc2)n2nnc3ccccc32)cc1` (stereo unspecified), for which the IC50 was found to be 17000 nM in assay [1], 1600 nM in assay [3], 89 nM in assay [4] and 92 nM in assay [2].

For `O=P(O)(O)C(F)(F)c1ccc(CC(c2ccccc2)n2nnc3ccccc32)cc1` (stereo unspecified), the IC50 was greater than 50000 nM in assay [1], 8040 nM in assay [4] and 7260 nM in assay [2].

`O=P(O)(O)C(F)(F)c1ccc(CC(Cc2ccc(OCc3ccccc3)cc2)(c2ccccc2)n2nnc3ccccc32)cc1` (stereo unspecified): the IC50 in assay [1] was 64000 nM; in assay [3] it was 4070 nM; in assay [4], 98 nM; in assay [2] it was 62 nM.

Turning to `O=P(O)(O)C(F)(F)c1ccc(CC(Cc2ccc(C(F)(F)P(=O)(O)O)cc2)(c2nc(-c3ccccc3)cs2)n2nnc3ccccc32)cc1`, the half-maximal inhibitory concentration (IC50) in assay [1] stood at 50000 nM; in assay [3] it was 190 nM; in assay [4], 19 nM; in assay [2], 18 nM.

On to `COC(CC(C)C)c1ccc2cc(-c3ccc(CC(Cc4ccc(C(F)(F)P(=O)(O)O)cc4)(c4ccccc4)n4nnc5ccccc54)cc3)cc(P(=O)(O)O)c2n1` (stereo in doubt; 21a), for which the IC50 in assay [1] was 50000 nM.

For the compound `COC(CC(C)C)c1ccc2cc(-c3ccc(CC(Cc4ccc(C(F)(F)P(=O)(O)O)cc4)(c4ccccc4)n4nnc5ccccc54)cc3)cc(P(=O)(O)O)c2n1` (stereo in doubt; 21b), the IC50 in assay [1] is 50000 nM; in assay [2] it was 41 nM.

For the compound `COC(CC(C)C)c1ccc2cc(-c3ccc(CC(Cc4ccc(C(F)(F)P(=O)(O)O)cc4)(c4ccccc4)n4nnc5ccccc54)cc3)cc(P(=O)(O)O)c2n1` (stereo in doubt; 21c), the IC50 in assay [1] is 50000 nM; in assay [2], 1130 nM.

Consider `COC(CC(C)C)c1ccc2cc(-c3ccc(CC(Cc4ccc(C(F)(F)P(=O)(O)O)cc4)(c4ccccc4)n4nnc5ccccc54)cc3)cc(P(=O)(O)O)c2n1` (stereo in doubt; 21d), for which the IC50 in assay [1] is 32000 nM; in assay [2], 930 nM.

The term IC50 denotes the concentration that inhibits the measured activity by half. High values mean weaker potency, low ones greater potency.
